Assay results taken from PubChem BioAssay (NCI).
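The concentration for 50% growth inhibition is given as GI50. TGI denotes the concentration required for complete inhibition of growth.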

Columns and labels:
Experiment in all cases: DTP human tumour cell line panel, 384-well format
OVCAR-3 ovarian = test system: OVCAR-3 ovarian
DU-145 prostate = test system: DU-145 prostate
PC-3 prostate = test system: PC-3 prostate
SK-OV-3 ovarian = test system: SK-OV-3 ovarian
NCI/ADR-RES ovarian = test system: NCI/ADR-RES ovarian
A549 NSCLC = test system: A549 NSCLC
HCT-15 colon = test system: HCT-15 colon
NCI-H226 lung = test system: NCI-H226 lung
A498 renal = test system: A498 renal
MALME-3M melanoma = test system: MALME-3M melanoma
NCI-H23 lung = test system: NCI-H23 lung
SR leukemia = test system: SR leukemia
MOLT-4 leukemia = test system: MOLT-4 leukemia

SMILES	GI50 (OVCAR-3 ovarian) [µM]	TGI (OVCAR-3 ovarian) [µM]	GI50 (DU-145 prostate) [µM]	TGI (DU-145 prostate) [µM]	GI50 (PC-3 prostate) [µM]	TGI (PC-3 prostate) [µM]	GI50 (SK-OV-3 ovarian) [µM]	TGI (SK-OV-3 ovarian) [µM]	GI50 (NCI/ADR-RES ovarian) [µM]	TGI (NCI/ADR-RES ovarian) [µM]	GI50 (A549 NSCLC) [µM]	TGI (A549 NSCLC) [µM]	GI50 (HCT-15 colon) [µM]	TGI (HCT-15 colon) [µM]	GI50 (NCI-H226 lung) [µM]	TGI (NCI-H226 lung) [µM]	GI50 (A498 renal) [µM]	TGI (A498 renal) [µM]	GI50 (MALME-3M melanoma) [µM]	TGI (MALME-3M melanoma) [µM]	further results
N#CCC1(n2cc(-c3ncnc4[nH]ccc34)cn2)CN(C2CCN(C(=O)c3ccnc(C(F)(F)F)c3F)CC2)C1	> 71.5	> 100	97.1	> 100	> 100	> 100	> 73.7	> 100	> 100	> 100	> 61.3	> 100	> 78.9	> 100	33.5	> 82.9	> 100	> 100	> 75.4	> 100	GI50 (NCI-H23 lung): 31.7 µM; TGI (NCI-H23 lung): > 100 µM; GI50 (SR leukemia): 23.9 µM; TGI (SR leukemia): 39.4 µM; GI50 (MOLT-4 leukemia): 16.8 µM; TGI (MOLT-4 leukemia): 35.4 µM
CNCc1ccc(-c2[nH]c3cc(F)cc4c3c2CCNC4=O)cc1	16	31	13.9	27.4	16.1	38	20.6	45.3	38.7	> 92.6	14.7	29.5	15.1	31.1	7.9	21.9	15.7	29.3	16.9	30.7	GI50 (NCI-H23 lung): 12.1 µM; TGI (NCI-H23 lung): 24.8 µM; GI50 (SR leukemia): 1.54 µM; TGI (SR leukemia): 3.93 µM; GI50 (MOLT-4 leukemia): 2.17 µM; TGI (MOLT-4 leukemia): 5.64 µM
